The source of these data is US20050054702A1, “Method of controlling allergens” (Lonza Inc., priority 2003, published 2005).

The assay concerns the target T1, Der p 1 allergen (Dermatophagoides pteronyssinus, UniProt P08176).
T1 sequence (P08176 99-320): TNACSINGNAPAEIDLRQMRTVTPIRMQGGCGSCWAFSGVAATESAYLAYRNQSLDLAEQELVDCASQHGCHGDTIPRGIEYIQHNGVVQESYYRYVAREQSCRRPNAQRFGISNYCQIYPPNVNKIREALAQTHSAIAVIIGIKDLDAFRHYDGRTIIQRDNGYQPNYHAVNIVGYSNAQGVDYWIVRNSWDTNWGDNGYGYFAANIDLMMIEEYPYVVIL
Briefly: ELISA method for Der p 1 Allergen (level of allergen recovered after exposure to active). The note with it: 10 min exposure to Ag, 62.5 ng/ml Ag in plate. Type of assay: biochemical. The procedure:
Several samples were tested using a standard Enzyme Linked Immunosorbent Assay, (ELISA). The ELISA method for Der p 1 Allergen was utilized. Der p 1 allergen is a standardized allergen. The ELISA method provides quantitative results correlating to the level of allergen recovered in the test.
In the ELISA method for Der p 1 Allergen, the coating antibody is Anti-Der p1 mAb 5H8, supplied as a HPLC purified stock solution at 2 mg/ml in phosphate buffered saline. The coating antibody was diluted in coating buffer (12 μl in 12 ml). 100 μl of the diluted coating antibody was dispensed in each well. The plate was held overnight at 4° C. Then the coating antibody was dumped from the plate and the plate was blotted dry. The well was washed 3 times with PBS-T and blotted dry. Next, 100 μl per well of blocking buffer (BSA PBS-T) was added and incubated for 30 minutes at room temperature. A standard curve (doubling dilutions between 250-0.5 ng/ml) was prepared. The experimental samples were prepared. “Controls” are actives exposed to the plate before addition of Ag. The exposure time was 1 hour. The Ag level used in the plate was 62.5 ng/ml as is for the Ag level in the active. “Samples” are Actives exposed to Ag before addition to the plate. Exposure time was 10 minutes before incubation in the plate for 1 hour. Actives were used in 1:1 ratio with 125 ng/ml Ag (yield 62.5 ng/ml Ag in test plate).
The plate was then washed, filled with standards, blanks, controls and samples and incubated for 1 hour. The detecting antibody was prepared. Next, the plate was washed and the detecting antibody was added to each well. The conjugate was prepared. The plate was washed and the conjugate was added. Just before washing the conjugate from the plate, H2O2 was added to the substrate solution. The plate was washed and the substrate was added. The plate was read when the absorbance of 250 ng/ml antigen standard (at 405 nm) reached 2.0-2.4.
The active levels in the table are listed in ppm and are diluted in half by antigen during testing.
Background: An ELISA detects its analyte on a solid surface through an enzyme-linked reagent.

Setting [1] is: diluent water, active 15,000 ppm (diluted in half by antigen during testing).
Where [2] appears, read: diluent water, active 10,000 ppm (diluted in half by antigen during testing).

Regarding `CCCCCCCCCCCCN(CCCN)CCCN` [N,N-bis(3-aminopropyl) dodecylamine], the “% Reduction” value reads like this: under setting [1], 99%; (diluent water, active 50,000 ppm (diluted in half by antigen during testing)) 100%.

For `O=C1O[C@H]([C@@H](O)CO)C(O)=C1O` [ascorbic acid], the “% Reduction” value under setting [2] was found to be 91%.

With `O=C(O)CC(O)(CC(=O)O)C(=O)O` [citric acid], the “% Reduction” value (diluent water, active 5,000 ppm (diluted in half by antigen during testing)) is listed as 100%.

Turning to `CC(=O)C1C(=O)C=C(C)OC1=O` (stereo not drawn) [dehydroacetic acid], for the setting “diluent ethoxylated alcohol, active 2,500 ppm (diluted in half by antigen during testing)”, the “% Reduction” value amounted to 100%.

Take `O=C1O[C@H]([C@H](O)CO)C(O)=C1O` [erythorbic acid]: under setting [2], the “% Reduction” value worked out at 96%.

For `CC(O)C(=O)O` (stereo not drawn) [lactic acid], the “% Reduction” value (diluent water, active 3,500 ppm (diluted in half by antigen during testing)) is listed as 95%.

With `O=C([O-])[O-].[Na+].[Na+]` [sodium carbonate], the “% Reduction” value (diluent water, active 2,500 ppm (diluted in half by antigen during testing)) was determined as 100%.

For the molecule `O=C([O-])CN(CCN(CC(=O)[O-])CC(=O)[O-])CC(=O)[O-].[Na+].[Na+].[Na+].[Na+]` [tetrasodium ethylene diamine tetraacetate], the “% Reduction” value under setting [1] is recorded as 91%.
